Data taken from article PMC9944867, “Mechanistic in vitro studies indicate that the clinical drug–drug interactions between protease inhibitors and rosuvastatin are driven by inhibition of intestinal BCRP and hepatic OATP1B1 with minimal contribution from OATP1B3, NTCP and OAT3” (Pharmacology Research & Perspectives, 2023).
“And” between values parts separate entries of the source, which are not always exact repeats. Equal values may be shown once. Read-outs that look alike come from different tables or passages of the source.

Columns and labels:
BCRP = target: T1, BCRP (Homo sapiens, UniProt Q9UNQ0); test: Caco-2 unidirectional (B-A) BCRP inhibition assay, [3H]-estrone 3-sulfate transport (IC50 determination)
T1 sequence (Q9UNQ0 1-655): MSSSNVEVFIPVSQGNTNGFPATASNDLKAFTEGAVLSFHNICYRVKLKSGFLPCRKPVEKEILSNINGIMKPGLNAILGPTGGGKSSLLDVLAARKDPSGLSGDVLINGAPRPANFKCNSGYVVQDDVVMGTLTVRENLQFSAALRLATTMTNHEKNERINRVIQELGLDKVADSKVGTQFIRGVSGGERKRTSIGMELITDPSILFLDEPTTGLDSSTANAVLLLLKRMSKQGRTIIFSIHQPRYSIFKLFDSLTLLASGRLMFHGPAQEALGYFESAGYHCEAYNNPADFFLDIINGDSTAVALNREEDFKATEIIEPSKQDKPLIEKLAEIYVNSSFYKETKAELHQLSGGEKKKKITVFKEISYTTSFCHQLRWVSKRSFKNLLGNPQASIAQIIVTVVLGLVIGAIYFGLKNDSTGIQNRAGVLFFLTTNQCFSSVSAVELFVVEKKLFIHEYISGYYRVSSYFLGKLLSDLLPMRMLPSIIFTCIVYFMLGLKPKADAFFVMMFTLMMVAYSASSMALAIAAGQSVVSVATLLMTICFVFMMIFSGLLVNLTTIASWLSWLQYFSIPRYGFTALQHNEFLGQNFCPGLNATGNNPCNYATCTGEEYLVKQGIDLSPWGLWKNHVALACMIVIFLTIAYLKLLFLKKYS
Protocol: The methodology used was adapted from the previously validated Caco‐2 unidirectional (basolateral to apical; B‐A) BCRP inhibition assay.[13]
The BCRP inhibition experiments were performed between day 18 to 22 post‐seeding. […] After pre‐incubation, transport buffer was removed and the appropriate donor solutions were added to the basolateral donor compartment. […] Receiver solutions (final DMSO concentration of ≤1 % v/v) in transport buffer containing either the corresponding concentration of test inhibitor or DMSO (vehicle control), and the fluorescent cell monolayer integrity marker lucifer yellow (100 μM), were added to the apical compartments (total volume = 90 μL). Incubations were conducted in triplicate wells per assay condition in a heated incubator at 37°C for 90 min. Following the incubation, the amount (pmol) of [^3H]‐estrone 3‐sulfate appearing in the receiver compartment was determined by sampling (50 μL) into a white walled clear bottomed multiwell plate, to which scintillation fluid (200 μL) was added, and then samples counted on a Microbeta2 liquid scintillation counter (PerkinElmer). The quantified amount (derived from disintegrations per minute; DPM) of [^3H]‐estrone 3‐sulfate was subsequently converted to concentration (pmol/mL) and used to calculate apparent permeability (Papp), as described previously.[18]

human OATP1B1 (SLCO1B1) = target: T2, human OATP1B1 (SLCO1B1) (Homo sapiens, UniProt Q9Y6L6); test: OATP1B1 inhibition in transporter-expressing HEK293 cells, [3H]-estradiol 17β-D-glucuronide uptake (IC50 determination); details: OATP1B1-mediated transport of [3H]-estradiol 17β-D-glucuronide (0.02 μM), HEK293
T2 sequence (Q9Y6L6 1-691): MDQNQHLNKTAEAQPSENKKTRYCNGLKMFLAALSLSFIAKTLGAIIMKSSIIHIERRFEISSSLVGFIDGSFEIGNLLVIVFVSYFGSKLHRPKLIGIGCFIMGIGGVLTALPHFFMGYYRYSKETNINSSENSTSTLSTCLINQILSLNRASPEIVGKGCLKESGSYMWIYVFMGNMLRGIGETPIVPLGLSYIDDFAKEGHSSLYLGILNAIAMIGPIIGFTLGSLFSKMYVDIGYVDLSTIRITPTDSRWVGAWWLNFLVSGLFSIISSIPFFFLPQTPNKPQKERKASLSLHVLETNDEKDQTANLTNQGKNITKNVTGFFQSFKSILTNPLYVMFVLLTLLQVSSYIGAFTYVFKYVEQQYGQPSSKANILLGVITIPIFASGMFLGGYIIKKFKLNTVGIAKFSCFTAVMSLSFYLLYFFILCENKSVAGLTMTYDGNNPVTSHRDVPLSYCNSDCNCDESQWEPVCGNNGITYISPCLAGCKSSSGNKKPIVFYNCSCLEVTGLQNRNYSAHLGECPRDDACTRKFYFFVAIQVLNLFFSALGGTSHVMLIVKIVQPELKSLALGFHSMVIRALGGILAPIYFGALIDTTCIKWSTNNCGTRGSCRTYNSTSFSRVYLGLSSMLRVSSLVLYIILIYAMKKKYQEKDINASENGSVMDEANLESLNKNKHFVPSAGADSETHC
Protocol: OATP1B1, OATP1B3, NTCP and vector control cell lines were cultured and subsequent transporter assays conducted as described above using the same transporter‐specific probe substrates and incubation times. For OATP1B1, the probe substrate was [^3H]‐estradiol 17β‐D‐glucuronide (0.02 μM) incubated for 2 min, with rifamycin SV (100 μM) as positive control inhibitor. For IC50 determinations, the only difference to the method performed above was that the 15‐min pre‐incubation step contained a range of six concentrations of protease inhibitor drug, and subsequent incubations were conducted with the same six concentration levels of drug rather than with a single concentration.

human NTCP (SLC10A1) = target: T3, human NTCP (SLC10A1) (Homo sapiens, UniProt Q14973); test: NTCP inhibition in transporter-expressing HEK293 cells, [3H]-taurocholic acid uptake (IC50 determination); assay type: cell-based; details: for IC50: NTCP-mediated transport of [3H]-taurocholic acid (1 μM), HEK293
T3 construct: host or cells: HEK293 TransportoCells
T3 sequence (Q14973 1-349): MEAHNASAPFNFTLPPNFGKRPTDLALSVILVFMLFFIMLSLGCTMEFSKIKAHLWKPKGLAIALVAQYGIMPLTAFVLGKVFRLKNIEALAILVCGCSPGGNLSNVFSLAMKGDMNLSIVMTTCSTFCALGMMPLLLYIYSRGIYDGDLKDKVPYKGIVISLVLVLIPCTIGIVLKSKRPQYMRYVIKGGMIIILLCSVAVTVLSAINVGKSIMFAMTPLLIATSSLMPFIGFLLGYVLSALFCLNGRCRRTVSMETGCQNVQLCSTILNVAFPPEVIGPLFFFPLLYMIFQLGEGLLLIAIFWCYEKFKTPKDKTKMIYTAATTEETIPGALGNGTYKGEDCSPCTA

[1] = cited from earlier work; for Cmax: read-out: [Cmax] mean steady-state maximum plasma concentration, total drug; for fu fraction unbound: in plasma, ref drug label accessed via Drugs@FDA database
OATP1B3 = test system: OATP1B3; parameters: method as in Vildhede et al.[33]; details: ref Vildhede et al.[33], cited from earlier work
NTCP = test system: NTCP; parameters: method as in Vildhede et al.[33]; details: ref Vildhede et al.[33], cited from earlier work
OAT3 = test system: OAT3; parameters: method as in Yoshida et al.[32]; details: up to 10 μM; ref Yoshida et al.[32]; cited from earlier work
[2] = IC50 mean (BCRP), BCRP-mediated B-A transport of [3H]-estrone 3-sulfate (1 μM), Caco-2, mean (±SD) of occasions, IC50 equates to Ki
[3] = IC50, determined values from different occasions (OATP1B1), single occasion
[4] = IC50 mean (OATP1B1), mean (±SD) of three occasions
[5] = mean (±SD) of three occasions, read-out: IC50 mean (NTCP)
[6] = single occasion, read-out: IC50, determined values from different occasions (NTCP)

| SMILES | IC50 (BCRP) | IC50 (BCRP; [2]) | IC50 (human OATP1B1 (SLCO1B1); [3]) | IC50 (human OATP1B1 (SLCO1B1); [4]) | R value (NTCP) (human NTCP (SLC10A1); FDA static equation R = 1 + [Iin max u]/Ki, potential for interaction if ≥1.1) | IC50 (human NTCP (SLC10A1); [5]) | IC50 (human NTCP (SLC10A1); [6]) | Cmax ([1]; clinical dose of Table 5, ref Elsby et al.[1]) | fu fraction unbound [1] | Published IC50/Ki (OATP1B3) (OATP1B3; probe substrate atorvastatin) | Inhibition of NTCP, published (NTCP; tested up to 40 μM) | Inhibition of OAT3, published (OAT3) | Cmax ([1]; 400 mg, ref Elsby et al.[13]) | Inhibition of OATP1B3, published (OATP1B3; tested up to 10 μM) | Inhibition of NTCP, published (NTCP; tested up to 10 μM) |
| --- | --- | --- | --- | --- | --- | --- | --- | --- | --- | --- | --- | --- | --- | --- | --- |
| COC(=O)N[C@H](C(=O)N[C@@H](Cc1ccccc1)[C@@H](O)CN(Cc1ccc(-c2ccccn2)cc1)NC(=O)[C@@H](NC(=O)OC)C(C)(C)C)C(C)(C)C [atazanavir] | 49.8 µM and 30.3 µM and 51.5 µM and 37.1 µM | 42.2 µM | 0.583 µM and 0.69 µM | 0.734 µM | 1.07 | 65.6 µM | 55.9 µM and 63.8 µM and 77.1 µM | 8.68 µM | 0.14 | 7.3 (atorvastatin) μM | no inhibition | no inhibition | – | – | – |
| Cc1cccc(C)c1OCC(=O)N[C@@H](Cc1ccccc1)[C@@H](O)C[C@H](Cc1ccccc1)NC(=O)[C@H](C(C)C)N1CCCNC1=O [lopinavir] | 12.7 µM and 18.3 µM and 15.6 µM | 15.5 µM | 0.291 µM and 0.207 µM and 0.162 µM | 0.22 µM | – | 20.3 µM | 22.6 µM and 18.4 µM and 19.9 µM | – | 0.02 | – | – | no inhibition | 14.6 µM | no inhibition | no inhibition |
